{
  "source": "patent US20240350520A1",
  "about": "“Method to Stimulate the Growth of Veillonella in Human Gut and Increase Athletic Performance” (Mellitas Health Foods, LLC, priority 2023, published 2024)",
  "test_system": "Veillonella in human gut",
  "experiment": "Veillonella level in human fecal samples by 16S rRNA sequencing before and after 2′-Fucosyllactose supplementation",
  "format": "in vivo",
  "from_the_text": "The genus, Veillonella, were quantified through the fecal samples collected by the human subjects. 16S ribosomal RNA (rRNA) sequencing was used to quantify the relative abundance of Veillonella in the human fecal samples. Veillonella levels were expressed as a percentage of total gut bacteria. Veillonella levels were quantified before the supplementation of 2′-Fucosyllactose and also after the supplementation of 2′-Fucosyllactose. The human subjects were asked to take 2′-Fucosyllactose daily doses ranging from 2000 mg to 4500 mg for 20-60 days with liquid and not to change their regular diet during the period. Four healthy subjects were asked to test their fecal samples and determine the baseline level of Veillonella before taking the 2′-Fucosyllactose. After collecting their initial fecal samples, they were instructed to take 2′-Fucosyllactose daily at doses between 2000 mg-4500 mg per day with liquid and not change their regular diet. The subject was asked to stop the supplementation of 2′-Fucosyllactose after 20-60 days. The subjects were instructed to collect their fecal samples immediately after stopping the supplementation and the fecal samples were tested thereafter. The levels of Veillonella in the fecal samples were quantified by 16S ribosomal RNA (rRNA) sequencing.",
  "data": [
    {"substance": "2′-Fucosyllactose", "values": [
      {"measurement": "level of Veillonella (percentage of total gut bacteria) after 2′-Fucosyllactose intake", "setting": "average of 4 human subjects, fecal samples, oral 2000-4500 mg daily, 30-45 days, 0.018% before intake, P<0.05", "result": 0.046, "unit": "%"},
      {"measurement": "change of the level of Veillonella in the human gut", "setting": "daily dosages of 2000-4500 mg, after 20-60 days", "result": "significantly increased"},
      {"measurement": "change of the level of Veillonella in the gut", "setting": "human subjects, supplementation for 30-45 days, FIG. 1", "result": "significantly increased"}
    ]}
  ]
}
